We go through one molecule from BindingDB's records for doi:10.1021/cb100011u (Academia Sinica, 2010).

Test [1] addresses T1, Beta-hexosaminidase subunit beta (Homo sapiens, UniProt P07686).
T1 sequence (P07686 whole entry): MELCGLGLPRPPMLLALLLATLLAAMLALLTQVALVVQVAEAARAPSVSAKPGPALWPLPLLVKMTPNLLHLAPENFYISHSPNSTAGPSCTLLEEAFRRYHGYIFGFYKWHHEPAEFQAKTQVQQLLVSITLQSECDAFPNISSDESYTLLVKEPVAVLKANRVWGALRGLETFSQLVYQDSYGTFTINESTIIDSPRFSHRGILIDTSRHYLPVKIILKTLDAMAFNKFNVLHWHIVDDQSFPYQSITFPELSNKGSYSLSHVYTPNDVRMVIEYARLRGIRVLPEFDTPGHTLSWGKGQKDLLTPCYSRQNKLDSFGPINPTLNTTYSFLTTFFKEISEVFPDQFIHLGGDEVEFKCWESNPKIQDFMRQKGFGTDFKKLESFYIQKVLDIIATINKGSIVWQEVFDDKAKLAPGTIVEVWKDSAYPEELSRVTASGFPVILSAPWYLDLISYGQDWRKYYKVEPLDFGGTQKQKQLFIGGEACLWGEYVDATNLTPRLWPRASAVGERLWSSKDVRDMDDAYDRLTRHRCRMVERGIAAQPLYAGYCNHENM
Kind of test: Enzyme Inhibition Assay. Conditions: pH 4.25; 30 °C. From the text: (§1) Enzyme inhibition activity assay using 4-methylumbelliferyl N-acetylglucosamine (MUG) as substrate.

The next test has as its target T2, Protein O-GlcNAcase (Homo sapiens, UniProt O60502).
T2 sequence (O60502 whole entry): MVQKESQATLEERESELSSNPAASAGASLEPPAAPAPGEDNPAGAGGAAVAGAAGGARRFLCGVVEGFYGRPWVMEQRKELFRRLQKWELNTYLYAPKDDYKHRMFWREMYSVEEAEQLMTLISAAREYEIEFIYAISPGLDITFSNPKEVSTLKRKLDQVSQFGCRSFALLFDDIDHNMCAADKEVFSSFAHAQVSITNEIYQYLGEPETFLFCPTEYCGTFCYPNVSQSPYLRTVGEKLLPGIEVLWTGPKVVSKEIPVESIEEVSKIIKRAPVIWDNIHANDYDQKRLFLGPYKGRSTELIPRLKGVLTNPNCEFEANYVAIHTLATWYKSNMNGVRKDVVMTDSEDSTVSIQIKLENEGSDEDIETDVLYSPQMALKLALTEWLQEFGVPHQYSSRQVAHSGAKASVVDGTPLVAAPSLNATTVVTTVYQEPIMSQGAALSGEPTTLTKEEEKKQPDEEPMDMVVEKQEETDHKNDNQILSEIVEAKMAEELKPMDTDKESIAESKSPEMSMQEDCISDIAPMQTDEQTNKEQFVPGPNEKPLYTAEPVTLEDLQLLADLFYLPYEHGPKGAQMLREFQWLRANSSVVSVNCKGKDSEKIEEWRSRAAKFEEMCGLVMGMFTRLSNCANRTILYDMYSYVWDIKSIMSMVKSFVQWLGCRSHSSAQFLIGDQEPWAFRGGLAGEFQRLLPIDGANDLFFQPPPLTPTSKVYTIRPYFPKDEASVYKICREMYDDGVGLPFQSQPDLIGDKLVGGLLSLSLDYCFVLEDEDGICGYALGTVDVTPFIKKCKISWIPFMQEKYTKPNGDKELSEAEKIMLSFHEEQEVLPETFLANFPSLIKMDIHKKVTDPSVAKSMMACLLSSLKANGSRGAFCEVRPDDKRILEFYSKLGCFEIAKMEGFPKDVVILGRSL
In words: Enzyme Inhibition Assay. Particulars: pH 4.25; 30 °C.
From the text: as §1

In the case of `CC(=O)N[C@H]1CN[C@H](CO)[C@@H](O)[C@@H]1O`, the Ki (usually the equilibrium dissociation constant of an inhibitor or competing ligand from its target) in test [1] was 0.54 µM; at Protein O-GlcNAcase, 23.6 µM.
